These results are taken from patent US20260062422A1 (Halda Therapeutics OpCo, Inc., priority 2022, published 2026).

The test system of assay [1] is VCaP cells. Nature of the assay: Cellular growth inhibition assay for VCaP cells, CellTiter-Glo. The class given is cell-based, human. As to conditions: 72 hours treatment, CellTiter-Glo 2.0. On the procedure:
VCaP cells were purchased from American Type Cell Culture (ATCC Cat #CRL2876) and then seeded on poly-D-lysine coated, black clear-bottom 384-well plates at 5000/well in 25 μL Dulbecco's Modified Eagle Medium (DMEM) supplemented with 10% w/w Fetal bovine serum (FBS) and 1% w/w Pen-Strep. Pen-Strep is a commercially available mixture of penicillin G and streptomycin, which is used in mammalian cell culture media to prevent bacterial contamination. Dulbecco's Modified Eagle Medium (DMEM) supplemented with 10% w/w fetal bovine serum (FBS) and 1% w/w Pen-Strep is herein referred to as Treatment Medium. Following seeding of cells in the plates, the plates were spun at 300×g for 30 seconds, then equilibrated to room temperature for 30 minutes, and then deposited in a humidified tissue culture incubator maintained at 37° C. with 5% CO2.
At 24 hours after seeding of the cells, dilutions of test compound were prepared in DMSO and dissolved in Treatment Medium, to achieve a final DMSO concentration of 0.5% w/w, thereby providing the Test Compound Solution. A 25 μL aliquot of the Test Compound Solution was added to cells in the well plates. An equal volume of a solution containing DMSO and Treatment Medium was used as a negative control. Following treatment of cells with Test Compound Solution or said equal volume of a solution containing DMSO and Treatment Medium, the plates were spun at 300×g for 30 seconds, and then left in an incubator for 72 hours.
At the end of the treatment duration, cell viability was quantified with CellTiter-Glo 2.0 reagent (Promega Cat #G9243). For this purpose, plates were equilibrated to room temperature for 30 minutes, and then 25 μL of CellTiter-Glo 2.0 reagent was added to cells in the plate wells. Plates were then agitated on a shaker for two minutes at 500 rpm and subsequently incubated at room temperature for 10 minutes. Following incubation, the plates were spun at 3000×g for 30 seconds, then sealed with an optical adhesive cover, and luminescence readings were measured with an EnVision Plate Reader.
Data was normalized using zero luminescence for baseline. A four-parameter non-linear regression curve fit was applied to dose-response data in GraphPad Prism data analysis software to determine the half-maximal growth inhibitory concentration (GI50) for each test compound.
For orientation: Cellular ATP, detected with luciferase, serves as a proxy for viable cell number.

Assay [2] concerns T-Rex 293 cell line SC3 cells lacking increased expression of androgen receptor protein. The assay can be described thus: Cellular growth inhibition, T-Rex 293 SC3 cells without doxycycline, CellTiter-Glo. The conditions noted are these: T-Rex 293 SC3 cells not exposed to doxycycline, CellTiter-Glo 2.0. The class given is cell-based. On the procedure: (§1) The following types of cells were prepared for this experiment: (i) a T-Rex 293 cell line having increased expression of androgen receptor protein due to exposure to doxycycline and (ii) a T-Rex 293 cell line lacking increased expression of androgen receptor protein. Ability of the test compounds to inhibit proliferation of the foregoing cell types was evaluated according to the procedures set forth below.
(§2) The doxycycline-inducible androgen receptor protein expressing cell line was established using the following protocol: T-Rex 293 cells were purchased from Invitrogen (Cat #R71007) and transfected using Lipofectamine 2000 with the wild-type androgen receptor protein sequence cloned into the pcDNA4/TO vector. Transfected cells were selected using 400 μg/mL Zeocin (Invitrogen Cat #R25001). Following selection, single clones were raised and maintained in Dulbecco's Modified Eagle Medium (DMEM) supplemented with 10% w/w Tetracycline-free fetal bovine serum (FBS) and 250 μg/mL Zeocin. Clones were analyzed for expression of androgen receptor protein in the presence and absence of 10 ng/mL doxycycline (Sigma Cat #D9891), and a single doxycycline-inducible clone (hereinafter “SC3”) was selected for use in downstream assays.
(§3) The SC3 cells were seeded on poly-D-lysine coated, black clear-bottom 384-well plates at 2500/well, in 25 μL Phenol Red Free Dulbecco's Modified Eagle Medium (DMEM) supplemented with 10% w/w charcoal-dextran treated fetal bovine serum (FBS) and 1% w/w pen-strep, with or without 10 ng/mL doxycycline. Pen-Strep is a commercially available mixture of penicillin G and streptomycin, which is used in mammalian cell culture media to prevent bacterial contamination. Phenol Red Free Dulbecco's Modified Eagle Medium (DMEM) supplemented with 10% w/w charcoal-dextran treated fetal bovine serum (FBS) and 1% w/w pen-strep, with or without 10 ng/mL doxycycline is herein referred to as Treatment Medium. Following seeding of cells in the plates, the plates were spun at 300×g for 30 seconds, then equilibrated to room temperature for 30 minutes, and then deposited in a humidified tissue culture incubator maintained at 37° C. with 5% CO2.
(§4) At 24 hours after seeding of the cells, dilutions of test compound were prepared in DMSO and dissolved in Treatment Medium, to achieve a final DMSO concentration of 0.5% w/w, thereby providing the Test Compound Solution. A 25 μL aliquot of the Test Compound Solution was added to cells in the well plates. An equal volume of a solution containing DMSO and Treatment Medium was used as a negative control. Following treatment of cells with Test Compound Solution or said equal volume of a solution containing DMSO and Treatment Medium, the plates were spun at 300×g for 30 seconds, and then left in an incubator for 72 hours. At the end of the treatment duration, cell viability was quantified with CellTiter-Glo 2.0 reagent (Promega Cat #G9243). For this purpose, plates were equilibrated to room temperature for 30 minutes, and then 25 μL of CellTiter-Glo 2.0 reagent was added to cells in the plate wells. Plates were then agitated on a shaker for two minutes at 500 rpm and subsequently incubated at room temperature for 10 minutes. Following incubation, the plates were spun at 3000×g for 30 seconds, then sealed with an optical adhesive cover, and luminescence readings were measured with an EnVision Plate Reader. Data was normalized using zero luminescence for baseline. A four-parameter non-linear regression curve fit was applied to dose-response data in GraphPad Prism data analysis software to determine the half-maximal growth inhibitory concentration (GI50) for each test compound.

The test system of assay [3] is T-Rex 293 cell line SC3 cells having increased expression of androgen receptor protein due to exposure to doxycycline. Nature of the assay: Cellular growth inhibition, T-Rex 293 SC3 cells with doxycycline (androgen receptor induced), CellTiter-Glo. The class given is cell-based. As to conditions: T-Rex 293 SC3 cells with 10 ng/mL doxycycline (increased androgen receptor expression). On the procedure:
as §1, §2, §3, §4

The test system of assay [4] is T47D cells. Nature of the assay: Cellular growth inhibition assay for T47D cells, CellTiter-Glo. The conditions noted are these: 72 hours treatment, CellTiter-Glo 2.0 cell viability. The class given is cell-based, human. An outline of the steps: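 Luminescence from CellTiter-Glo 2.0 after 72 h of compound exposure gives the viability signal. Cells grew in insulin-supplemented (0.2 units/mL) DMEM with 10% FBS and were treated one day after seeding at 0.5% DMSO. GI50 values come from four-parameter nonlinear regression.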

Where only a bound is given, the exact number is not on record here.

As a reminder, the GI50 is the concentration giving 50% growth inhibition. Lower therefore signals more potent growth inhibition.

As for `Cc1sc2c(c1C)C(c1ccc(N3C[C@H]4C[C@@H]3CN4c3ncc(C(=O)N[C@H]4C(C)(C)[C@H](Oc5ccc(C#N)c(Cl)c5)C4(C)C)cn3)cc1)=NC(Cc1ncco1)c1nnc(C)n1-2` (stereo partly drawn) [Compound I-665], the concentration for 50% growth inhibition (GI50) in assay [1] (Homo sapiens, VCaP, 72 h) is less than 500 nM; in assay [2] (72 h), less than 500 nM.
As for `Cc1sc2c(c1C)C(c1ccc(N[C@H]3CCN(c4ncc(C(=O)N[C@H]5C(C)(C)[C@H](Oc6ccc(C#N)c(Cl)c6)C5(C)C)cn4)C[C@@H]3F)cc1)=NC(Cc1ncco1)c1nnc(C)n1-2` (stereo partly drawn) [Compound I-630], the GI50 in assay [3] (72 h) and in assay [2] (72 h) was less than 500 nM each time.
As to `Cc1sc2c(c1C)C(c1ccc(N3C[C@H](F)C[C@@H](Nc4ncc(C(=O)N[C@H]5C(C)(C)[C@H](Oc6ccc(C#N)c(Cl)c6)C5(C)C)cn4)C3)cc1)=NC(Cc1ncco1)c1nnc(C)n1-2` (stereo partly drawn) [Compound I-664], the GI50 in assay [1] (Homo sapiens, VCaP, 72 h) is less than 500 nM; in assay [2] (72 h), less than 500 nM.
Regarding `Cc1sc2c(c1C)C(c1ccc(N[C@H]3CC[C@@H](Nc4ncc(C(=O)N[C@H]5C(C)(C)[C@H](Oc6ccc(C#N)c(Cl)c6)C5(C)C)cn4)CC3)cc1)=N[C@@H](Cc1ncco1)c1nnc(C)n1-2` [Compound I-623], the GI50 in assay [3] (72 h) and in assay [2] (72 h) was less than 500 nM throughout.
On to `Cc1sc2c(c1C)C(c1ccc(CC(=O)NCCc3ncc(C(=O)N[C@H]4C(C)(C)[C@H](Oc5ccc(C#N)c(Cl)c5)C4(C)C)cn3)cc1)=N[C@@H](Cc1ncco1)c1nnc(C)n1-2` [Compound I-440], for which the GI50 in assay [1] (Homo sapiens, VCaP, 72 h) is 500 to 1500 nM; in assay [4] (Homo sapiens, T47D, 72 h) it was 1500 to 3000 nM; in assay [2] (72 h), more than 3000 nM.
For `Cc1sc2c(c1C)C(c1ccc(NCC3CC4(C3)CN(c3ncc(C(=O)N[C@H]5C(C)(C)[C@H](Oc6ccc(C#N)c(Cl)c6)C5(C)C)cn3)C4)cc1)=N[C@@H](Cc1ncco1)c1nnc(C)n1-2` [Compound I-660] the same measures were less than 500 nM, less than 500 nM and less than 500 nM.
For `Cc1sc2c(c1C)C(c1ccc(CC3CC(OC4CCN(c5ncc(C(=O)N[C@H]6C(C)(C)[C@H](Oc7ccc(C#N)c(Cl)c7)C6(C)C)cn5)CC4)C3)cc1)=N[C@@H](C)c1nnc(C)n1-2` (stereo partly drawn) [Compound I-446], the 50% growth inhibitory concentration (GI50) in assay [1] was 1500 to 3000 nM; in assay [4], less than 500 nM; in assay [2] (72 hours) it was more than 3000 nM.
With `Cc1sc2c(c1C)C(c1ccc(N3CC[C@H](Nc4ncc(C(=O)N[C@H]5C(C)(C)[C@H](Oc6ccc(C#N)c(Cl)c6)C5(C)C)cn4)C3)cc1)=N[C@@H](Cc1ncco1)c1nnc(C)n1-2` [Compound I-624], the concentration for 50% growth inhibition (GI50) in assay [3] (72 h) and in assay [2] (72 h) was less than 500 nM each time.
For the compound `Cc1sc2c(c1C)C(c1ccc(N3CC4(CCN(c5ncc(C(=O)N[C@H]6C(C)(C)[C@H](Oc7ccc(C#N)c(Cl)c7)C6(C)C)cn5)CC4)C3)cc1)=NC(Cc1ncco1)c1nnc(C)n1-2` (stereo partly drawn) [Compound I-625], the GI50 was less than 500 nM in assay [3] (72 h) and more than 3000 nM in assay [2] (72 h).
For `Cc1sc2c(c1C)C(c1ccc(NCCC3CCN(c4ncc(C(=O)N[C@H]5C(C)(C)[C@H](Oc6ccc(C#N)c(Cl)c6)C5(C)C)cn4)CC3)cc1)=NC(Cc1ncco1)c1nnc(C)n1-2` (stereo partly drawn) [Compound I-627] the same measures were less than 500 nM and less than 500 nM.
In the case of `Cc1sc2c(c1C)C(c1ccc(N[C@H]3CC[C@H](Nc4ncc(C(=O)N[C@H]5C(C)(C)[C@H](Oc6ccc(C#N)c(Cl)c6)C5(C)C)cn4)CC3)cc1)=N[C@@H](Cc1ncco1)c1nnc(C)n1-2` [Compound I-663], the GI50 in assay [1] (Homo sapiens, VCaP, 72 h) is less than 500 nM; in assay [2] (72 h), less than 500 nM.
With `Cc1sc2c(c1C)C(c1ccc(N3CCC[C@@H](CNc4ncc(C(=O)N[C@H]5C(C)(C)[C@H](Oc6ccc(C#N)c(Cl)c6)C5(C)C)cn4)C3)cc1)=NC(Cc1ncco1)c1nnc(C)n1-2` (stereo partly drawn) [Compound I-662], the 50% growth inhibitory concentration (GI50) in assay [1] (Homo sapiens, VCaP, 72 h) is less than 500 nM; in assay [2] (72 h) it was 500 to 1500 nM.
Take `Cc1sc2c(c1C)C(c1ccc(N3CCC(C)(Nc4ncc(C(=O)N[C@H]5C(C)(C)[C@H](Oc6ccc(C#N)c(Cl)c6)C5(C)C)cn4)CC3)cc1)=N[C@@H](Cc1ncco1)c1nnc(C)n1-2` [Compound I-626]: the results for the 50% growth inhibitory concentration (GI50) in assay [3] (72 h) and in assay [2] (72 h) were less than 500 nM and more than 3000 nM, respectively.
As for `Cc1sc2c(c1C)C(c1ccc(N3[C@@H]4CC[C@H]3C[C@@H](Nc3ncc(C(=O)N[C@H]5C(C)(C)[C@H](Oc6ccc(C#N)c(Cl)c6)C5(C)C)cn3)C4)cc1)=N[C@@H](Cc1ncco1)c1nnc(C)n1-2` [Compound I-631], the concentration for 50% growth inhibition (GI50) is less than 500 nM in assay [3] (72 hours) and more than 3000 nM in assay [2] (72 hours).
For `Cc1sc2c(c1C)C(c1ccc(N3CCC4(CCCN(c5ncc(C(=O)N[C@H]6C(C)(C)[C@H](Oc7ccc(C#N)c(Cl)c7)C6(C)C)cn5)C4)C3)cc1)=N[C@@H](Cc1ncco1)c1nnc(C)n1-2` (stereo partly drawn) [Compound I-632], the concentration for 50% growth inhibition (GI50) in assay [3] (72 h) is less than 500 nM; in assay [2] (72 h) it was more than 3000 nM.
For the compound `Cc1sc2c(c1C)C(c1ccc(N[C@H]3CCN(c4ncc(C(=O)N[C@H]5C(C)(C)[C@H](Oc6ccc(C#N)c(Cl)c6)C5(C)C)cn4)C3)cc1)=NC(Cc1ncco1)c1nnc(C)n1-2` (stereo partly drawn) [Compound I-622], the GI50 in assay [3] (72 h) and in assay [2] (72 h) was less than 500 nM in each case.
As to `Cc1sc2c(c1C)C(c1ccc(NC3C[C@@H]4CCC[C@@H](C3)N4c3ncc(C(=O)N[C@H]4C(C)(C)[C@H](Oc5ccc(C#N)c(Cl)c5)C4(C)C)cn3)cc1)=N[C@@H](Cc1ncco1)c1nnc(C)n1-2` (stereo partly drawn) [Compound I-629], the values for the GI50 in assay [3] (72 hours) and in assay [2] (72 hours) were less than 500 nM and more than 3000 nM, respectively.
Regarding `Cc1sc2c(c1C)C(c1ccc(NCCN3CCN(c4ncc(C(=O)N[C@H]5C(C)(C)[C@H](Oc6ccc(C#N)c(Cl)c6)C5(C)C)cn4)CC3)cc1)=NC(Cc1ncco1)c1nnc(C)n1-2` (stereo partly drawn) [Compound I-661], the GI50 in assay [1] (Homo sapiens, VCaP, 72 h) was less than 500 nM; in assay [2] (72 h), less than 500 nM.
